Where two headings read alike, the source gives them in different places.
System: HEK-CMV-Luc2-Hygro cells
Experiment: High-throughput genome-wide siRNA screen and validation screen for luciferase expression
Assay type: cell-based, human
Conditions: for per_cell / VIA: Table 3; for per_cell: per cell luciferase yield relative to negative control; for VIA: viable cell density as % of negative control; for Luciferase activity (%) / Per cell luciferase yield (%) / Viable cell number (%): Table 6, polyamine pathway gene siRNAs
Outline: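 HEK cells with CMV-driven luciferase were reverse-transfected with 0.8 pmol siRNA per well (3 per gene) via RNAiMax and grown 72 h at 37 °C. Duplicate wells read for luciferase (ONE-Glo) and viability (CellTiter-Glo). Values given as % of plate negative-control median with MAD-based z-scores; hits with ≥2 siRNAs at z>3 retested using 3 new siRNAs.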

[1] = Table 4, primary screen, 72 h, negative control = 100%

109 (GCAUCGAGGAGACUAACAATT; chemistry not given here; listed as Homo sapiens) [compound 109]
Viable cell density (%) [1]: 51.696% | per cell luciferase yield (%) [1]: 275.068%

71 (GAUUACUUCUUGACUAUCATT; chemistry not given here; listed as Homo sapiens) [compound 71]
per_cell (primary screen, 72 h): 150.8 | VIA (primary screen, 72 h): 123.2

117 (GGCUGUACAUAGUCCUUUUTT; chemistry not given here; listed as Homo sapiens) [compound 117]
Viable cell density (%): 66.394% | per cell luciferase yield (%) [1]: 238.463%

122 (AGGGCUAUCUGGUAUCUGUTT; chemistry not given here; listed as Homo sapiens) [compound 122]
Viable cell density (%): 54.854% | per cell luciferase yield (%) [1]: 283.281%

193 (GGGACACUGUCAACCUCUATT; chemistry not given here; listed as Homo sapiens) [compound 193]
Viable cell density (%) [1]: 74.811% | per cell luciferase yield (%) [1]: 205.132%

202 (GGAUGACGAGCUGAACUUUTT; chemistry not given here; listed as Homo sapiens) [compound 202]
Viable cell density (%) [1]: 113.437% | per cell luciferase yield (%) [1]: 140.103%

174 (GCAAUGCUUGCAAAACUCATT; chemistry not given here; listed as Homo sapiens) [compound 174]
Viable cell density (%) [1]: 90.976% | per cell luciferase yield (%) [1]: 189.252%

60 (GGCGAAUGCUCCUGACUAATT; chemistry not given here; listed as Homo sapiens) [compound 60]
per_cell (primary screen, 72 h): 157 | VIA (primary screen, 72 h): 103.9

206 (GCUCCUCUGUUACCACAGATT; chemistry not given here; listed as Homo sapiens) [compound 206]
Viable cell density (%) [1]: 91.526% | per cell luciferase yield (%) [1]: 179.268%

175 (CAUUGGUGUUGACAAUCCATT; chemistry not given here; listed as Homo sapiens) [compound 175]
Viable cell density (%) [1]: 85.046% | per cell luciferase yield (%) [1]: 189.850%

75 (GCUCAUCGACAUCAAAGUUTT; chemistry not given here; listed as Homo sapiens) [compound 75]
per_cell (primary screen, 72 h): 170.1 | VIA (primary screen, 72 h): 97.01

107 (CCAUAUAUCCGAAUGACCATT; chemistry not given here; listed as Homo sapiens) [compound 107]
Viable cell density (%) [1]: 63.879% | per cell luciferase yield (%) [1]: 256.443%

69 (CCCUCCUACUAUUACCCGUTT; chemistry not given here; listed as Homo sapiens) [compound 69]
per_cell (primary screen, 72 h): 163 | VIA (primary screen, 72 h): 96.87

96 (ACACUCUUGUGGUCAAGAATT; chemistry not given here; listed as Homo sapiens) [compound 96]
Viable cell density (%) [1]: 73.809% | per cell luciferase yield (%) [1]: 227.741%

170 (CCAACAAGGAAGACGAAAATT; chemistry not given here; listed as Homo sapiens) [compound 170]
Viable cell density (%) [1]: 267.320% | per cell luciferase yield (%) [1]: 284.062%

134 (GAUCGUUUGAGAGAACAAATT; chemistry not given here; listed as Homo sapiens) [compound 134]
Viable cell density (%) [1]: 77.107% | per cell luciferase yield (%) [1]: 210.336%

63 (CCUGGACAGUUUGAAGCAATT; chemistry not given here; listed as Homo sapiens) [compound 63]
per_cell (primary screen, 72 h): 174.9 | VIA (primary screen, 72 h): 88.01

65 (GCCUAGGAGUUAUCCUCUATT; chemistry not given here; listed as Homo sapiens) [compound 65]
per_cell (primary screen, 72 h): 137.6 | VIA (primary screen, 72 h): 112.2

64 (GAUCGUUUGAGAGAACAAATT; chemistry not given here; listed as Homo sapiens) [compound 64]
per_cell (primary screen, 72 h): 210.3 | VIA (primary screen, 72 h): 77.11

131 (GGAGAAAGAAUCAACGGAATT; chemistry not given here; listed as Homo sapiens) [compound 131]
Viable cell density (%) [1]: 70.586% | per cell luciferase yield (%) [1]: 284.565%

208 (CUUUUAAUGUUAAACUACATT; chemistry not given here; listed as Homo sapiens) [compound 208]
Viable cell density (%) [1]: 110.986% | per cell luciferase yield (%) [1]: 133.601%

68 (CAGGUAGUGUAAGCCCUCATT; chemistry not given here; listed as Homo sapiens) [compound 68]
per_cell (primary screen, 72 h): 303 | VIA (primary screen, 72 h): 66.87

192 (GCAUCUGUCCGAUCGCUCUTT; chemistry not given here; listed as Homo sapiens) [compound 192]
Viable cell density (%) [1]: 105.514% | per cell luciferase yield (%) [1]: 143.889%

135 (CAGGUAGUGUAAGCCCUCATT; chemistry not given here; listed as Homo sapiens) [compound 135]
Viable cell density (%) [1]: 66.872% | per cell luciferase yield (%) [1]: 302.994%

70 (GAUUAUCCUUGUACUUUGATT; chemistry not given here; listed as Homo sapiens) [compound 70]
per_cell (primary screen, 72 h): 141.8 | VIA (primary screen, 72 h): 101.9

187 (AGAAAGCUUUGGGCAAAUATT; chemistry not given here; listed as Homo sapiens) [compound 187]
Viable cell density (%) [1]: 75.570% | per cell luciferase yield (%) [1]: 200.070%

210 (CAAUGGAACAAUCAAAGUUTT; chemistry not given here; listed as Homo sapiens) [compound 210]
Viable cell density (%) [1]: 89.607% | per cell luciferase yield (%) [1]: 180.764%

87 (GGUGUAAUAAUGUCCUUUATT; chemistry not given here; listed as Homo sapiens) [compound 87]
per_cell (primary screen, 72 h): 188.1 | VIA (primary screen, 72 h): 79.39

145 (CCAGUUCGACCUGAACAAATT; chemistry not given here; listed as Homo sapiens) [compound 145]
Viable cell density (%) [1]: 85.750% | per cell luciferase yield (%) [1]: 176.019%

181 (GCUAAGUCUUUUCCACAGUTT; chemistry not given here; listed as Homo sapiens) [compound 181]
Viable cell density (%) [1]: 94.537% | per cell luciferase yield (%) [1]: 155.385%

156 (GAUUAUCCUUGUACUUUGATT; chemistry not given here; listed as Homo sapiens) [compound 156]
Viable cell density (%) [1]: 101.904% | per cell luciferase yield (%) [1]: 141.842% | Luciferase activity (%): 144.5% | Per cell luciferase yield (%): 141.8% | Viable cell number (%): 101.9%

163 (CCAGCGAUACAACUCCUAUTT; chemistry not given here; listed as Homo sapiens) [compound 163]
Viable cell density (%) [1]: 83.636% | per cell luciferase yield (%) [1]: 176.821%

92 (CCAGUUCGACCUGAACAAATT; chemistry not given here; listed as Homo sapiens) [compound 92]
per_cell (primary screen, 72 h): 176 | VIA (primary screen, 72 h): 85.75

85 (CUGCCGCAACAAUAAGAAATT; chemistry not given here; listed as Homo sapiens) [compound 85]
per_cell (primary screen, 72 h): 171.2 | VIA (primary screen, 72 h): 82.95

103 (GACAUUGGAUCAUACUAAATT; chemistry not given here; listed as Homo sapiens) [compound 103]
Viable cell density (%) [1]: 88.908% | per cell luciferase yield (%) [1]: 185.522%

114 (GUCCUAUCACCGUAUCUUATT; chemistry not given here; listed as Homo sapiens) [compound 114]
Viable cell density (%) [1]: 55.962% | per cell luciferase yield (%) [1]: 266.627%

127 (CCAACUACCUGAACGAUGATT; chemistry not given here; listed as Homo sapiens) [compound 127]
Viable cell density (%) [1]: 54.133% | per cell luciferase yield (%) [1]: 311.348%

169 (GCGGAAAAGGUAUCCCUCATT; chemistry not given here; listed as Homo sapiens) [compound 169]
Viable cell density (%) [1]: 80.173% | per cell luciferase yield (%) [1]: 184.608%

38 (GCAGUGGACAUAGAAGAGATT; chemistry not given here; listed as Homo sapiens) [compound 38]
per_cell (primary screen, 72 h): 140.7 | VIA (primary screen, 72 h): 110.8

188 (GGAAGAACGUCUUGCACAATT; chemistry not given here; listed as Homo sapiens) [compound 188]
Viable cell density (%) [1]: 85.471% | per cell luciferase yield (%) [1]: 183.071%

221 (CCACGACCAGCUUAAAGAATT; chemistry not given here; listed as Homo sapiens) [compound 221]
Luciferase activity (%): 90.5% | Per cell luciferase yield (%): 94.5% | Viable cell number (%): 95.76%

176 (GUUGCAAACUUAUCGAGGATT; chemistry not given here; listed as Homo sapiens) [compound 176]
Viable cell density (%) [1]: 79.093% | per cell luciferase yield (%) [1]: 186.786%

222 (GACUUUCACUUCCGCCUUATT; chemistry not given here; listed as Homo sapiens) [compound 222]
Luciferase activity (%): 74.3% | Per cell luciferase yield (%): 84.7% | Viable cell number (%): 87.7%

From patent US20160319277A1, “METHODS OF IMPROVED PROTEIN PRODUCTION USING MIRNAs AND SIRNAs” (THE JOHNS HOPKINS UNIVERSITY, priority 2015, published 2016)
